pIC50: −log10 of the molar value.
Assays:
[1] = biological target: T1, PPARα (Homo sapiens, UniProt Q07869); experiment: Radioligand binding assay (SPA), PPARα receptor binding; details: GST-PPARα-LBD fusion protein
T1 construct: PPARα (aa 167 to 469); made in house; host or cells: E. coli BL21 (pLysS)
T1 sequence (Q07869 167-468 limits assumed): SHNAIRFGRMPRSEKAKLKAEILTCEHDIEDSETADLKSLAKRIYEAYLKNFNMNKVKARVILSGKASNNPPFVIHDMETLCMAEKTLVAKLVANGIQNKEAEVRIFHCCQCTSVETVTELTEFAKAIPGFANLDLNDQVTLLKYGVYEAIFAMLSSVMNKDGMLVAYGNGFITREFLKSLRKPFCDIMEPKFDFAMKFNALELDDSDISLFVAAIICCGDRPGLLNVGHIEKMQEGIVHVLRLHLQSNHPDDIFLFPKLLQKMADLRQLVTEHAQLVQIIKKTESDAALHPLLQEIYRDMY
Excerpt: (§1) Background information on the performed assays can be found in: Nichols J S et al. “Development of a scintillation proximity assay for peroxisome proliferator-activated receptor gamma ligand binding domain”, (1998) Anal. Biochem. 257: 112-119.
(§2) Full-length cDNA clones for humans PPARδ and PPARα and mouse PPARγ were obtained by RT-PCR from human adipose and mouse liver cRNA, respectively, cloned into plasmid vectors and verified by DNA sequencing. Bacterial and mammalian expression vectors were constructed to produce glutathione-s-transferase (GST) and Gal4 DNA binding domain proteins fused to the ligand binding domains (LBD) of PPARδ (aa 139 to 442), PPARγ (aa 174 to 476) and PPARα (aa 167 to 469). To accomplish this, the portions of the cloned sequences encoding the LBDs were amplified from the full-length clones by PCR and then subcloned into the plasmid vectors. Final clones were verified by DNA sequence analysis.
(§3) Induction, expression, and purification of GST-LBD fusion proteins were performed in E. coli strain BL21 (pLysS) cells by standard methods (Ref: Current Protocols in Molecular Biology, Wiley Press, edited by Ausubel et al.).
(§4) PPARα receptor binding was assayed in TKE50 (50 mM Tris-HCl, pH 8, 50 mM KCl, 2 mM EDTA, 0.1 mg/ml fatty acid-free BSA and 10 mM DTT). For each 96 well reaction an 140 ng equivalent of GST-PPARα-LBD fusion protein was bound to 10 μg SPA beads (PharmaciaAmersham) in a final volume of 50 μl by shaking. The resulting slurry was incubated for 1 h at RT and centrifuged for 2 min at 1300 g. The supernatant containing unbound protein was removed and the semidry pellet containing the receptor-coated beads was resolved in 50 μl of TKE. For radioligand binding e.g. 10000 dpm of 2(S)-(2-benzoyl-phenylamino)-3-{4-[1,1-d]tritio-2-(5-methyl-2-phenyl-oxazol-4-yl)-ethoxy]-phenyl}-propionic acid or 2,3-ditritio-2(S)-methoxy-3-{4-[2-(5-methyl-2-phenyl-oxazol-4-yl)-ethoxy]-benzo[b]thiophen-7-yl}-propionic acid in 50 ul were added, the reaction incubated at RT for 1 h and scintillation proximity counting performed. All binding assays were performed in 96 well plates and the amount of bound ligand measured on a Packard TopCount using OptiPlates (Packard). Nonspecific binding was determined in the presence of 10^−4 M unlabelled compound. Dose response curves were done in triplicates within a range of concentration from 10^−10 M to 10^−4 M.

[2] = biological target: T2, PPARγ (Mus musculus, UniProt P37238); experiment: Radioligand binding assay (SPA), PPARγ receptor binding; details: GST-PPARγ-LBD fusion protein
T2 construct: PPARγ (aa 174 to 476); made in house; host or cells: E. coli BL21 (pLysS)
T2 sequence (P37238 204-505): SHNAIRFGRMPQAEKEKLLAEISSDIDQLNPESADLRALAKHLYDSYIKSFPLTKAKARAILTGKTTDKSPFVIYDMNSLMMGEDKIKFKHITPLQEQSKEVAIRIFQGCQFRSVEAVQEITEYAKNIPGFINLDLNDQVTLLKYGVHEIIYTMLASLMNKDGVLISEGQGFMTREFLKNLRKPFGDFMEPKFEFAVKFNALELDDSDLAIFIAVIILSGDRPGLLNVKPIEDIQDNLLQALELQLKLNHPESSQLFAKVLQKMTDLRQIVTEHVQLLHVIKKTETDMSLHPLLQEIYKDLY
Excerpt: as §1, §2, §3
as §4, with “PPARγ receptor” for “PPARα receptor”, “of GST-PPARγ-LBD” for “of GST-PPARα-LBD”, “50 ul” for “50 μl”, “dpm 2(S)-(2-benzoyl-phenylamino)-3-{4-[1,1-ditritio-2-(5-methyl-2-phenyl-oxazol-4-yl)-ethoxy]-phenyl}-propionic” for “dpm of 2(S)-(2-benzoyl-phenylamino)-3-{4-[1,1-d]tritio-2-(5-methyl-2-phenyl-oxazol-4-yl)-ethoxy]-phenyl}-propionic acid or 2,3-ditritio-2(S)-methoxy-3-{4-[2-(5-methyl-2-phenyl-oxazol-4-yl)-ethoxy]-benzo[b]thiophen-7-yl}-propionic”, “50 μl” for “50 ul”

[3] = biological target: T3, PPARδ (Homo sapiens, UniProt Q03181); experiment: Radioligand binding assay (SPA), PPARδ receptor binding; details: GST-PPARδ-LBD fusion protein
T3 construct: PPARδ (aa 139 to 442); made in house; host or cells: E. coli BL21 (pLysS)
T3 sequence (Q03181 139-441 limits assumed): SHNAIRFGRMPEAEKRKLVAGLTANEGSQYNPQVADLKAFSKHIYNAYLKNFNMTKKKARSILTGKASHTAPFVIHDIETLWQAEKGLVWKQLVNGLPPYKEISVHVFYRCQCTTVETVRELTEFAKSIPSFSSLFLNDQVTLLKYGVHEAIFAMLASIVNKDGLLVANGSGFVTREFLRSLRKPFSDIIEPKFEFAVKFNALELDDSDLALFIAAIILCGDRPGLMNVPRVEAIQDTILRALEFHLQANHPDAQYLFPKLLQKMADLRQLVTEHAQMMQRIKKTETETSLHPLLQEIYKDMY
Excerpt: as §1, §2, §3
PPARδ receptor binding was assayed in HNM10 (50 mM Hepes, pH 7.4, 10 mM NaCl, 5 mM MgCl2, 0.15 mg/ml fatty acid-free BSA and 15 mM DTT). For each 96 well reaction a 500 ng equivalent of GST-PPARδ-LBD fusion protein and radioligand, e.g. 20000 dpm {2-methyl-4-[4-methyl-2-(4-trifluoromethyl-phenyl)-thiazol-5-yl-ditritiomethylsulfanyl]-phenoxy}-acetic acid, was bound to 10 μg SPA beads (PharmaciaAmersham) in a final volume of 50 μl by shaking. The resulting slurry was incubated for 1 h at RT and centrifuged for 2 min at 1300 g. The supernatant containing unbound protein was removed and the semidry pellet containing the receptor-coated beads was resuspended in 50 ul of HNM. Radioligand was added and the reaction incubated at RT for 1 h and scintillation proximity counting performed in the presence of test compounds was determined. All binding assays were performed in 96 well plates and the amount of bound ligand was measured on a Packard TopCount using OptiPlates (Packard). Dose response curves were done in triplicates within a range of concentration from 10^−10 M to 10^−4 M.

pIC50 [1]	melting point	pIC50 [2]	pIC50 [3]	SMILES
5.76	146 to 149 °C (dec.)	< 5.00	7.75	Cc1cc(N(C)Cc2sc(-c3ccc(C(F)(F)F)cc3)nc2C)ccc1OCC(=O)O [Example 1.6, (2-Methyl-4-{methyl-[4-methyl-2-(4-trifluoromethyl-phenyl)-thiazol-5-ylmethyl]-amino}-phenoxy)-acetic acid]
6.39	149 to 150 °C (dec.)	< 5.00	7.68	Cc1nc(-c2ccc(C(F)(F)F)cc2)sc1CN(C)c1ccc(OCC(=O)O)c(Cl)c1 [Example 4.6, (2-Chloro-4-{methyl-[4-methyl-2-(4-trifluoromethyl-phenyl)-thiazol-5-ylmethyl]-amino}-phenoxy)-acetic acid]
5.97	113 to 114 °C	< 5.00	7.30	Cc1nc(-c2ccc(C(F)(F)F)cc2)sc1CN(C)c1ccc(OCC(=O)O)c(F)c1 [Example 5.7, (2-Fluoro-4-{methyl-[4-methyl-2-(4-trifluoromethyl-phenyl)-thiazol-5-ylmethyl]-amino}-phenoxy)-acetic acid]
6.33	180 to 181 °C	< 5.00	7.79	Cc1nc(-c2ccc(C(F)(F)F)cc2)sc1CN(C)c1ccc(OCC(=O)O)c(C(F)(F)F)c1 [Example 6.8, (4-{Methyl-[4-methyl-2-(4-trifluoromethyl-phenyl)-thiazol-5-ylmethyl]-amino}-2-trifluoromethyl-phenoxy)-acetic acid]
6.51	142 to 143 °C (dec.)	5.66	8.00	CCc1cc(N(C)Cc2sc(-c3ccc(C(F)(F)F)cc3)nc2C)ccc1OCC(=O)O [Example 7.8, (2-Ethyl-4-{methyl-[4-methyl-2-(4-trifluoromethyl-phenyl)-thiazol-5-ylmethyl]-amino}-phenoxy)-acetic acid]
–	129 to 131 °C (dec.)	–	–	COc1cc(N(C)Cc2sc(-c3ccc(C(F)(F)F)cc3)nc2C)ccc1OCC(=O)O [Example 8.7, (2-Methoxy-4-{methyl-[4-methyl-2-(4-trifluoromethyl-phenyl)-thiazol-5-ylmethyl]-amino}-phenoxy)-acetic acid]
5.40	142 to 143 °C	< 5.00	7.47	COCCCc1cc(N(C)Cc2sc(-c3ccc(C(F)(F)F)cc3)nc2C)ccc1OCC(=O)O [Example 13.10, (2-(3-Methoxy-propyl)-4-{methyl-[4-methyl-2-(4-trifluoromethyl-phenyl)-thiazol-5-ylmethyl]-amino}-phenoxy)-acetic acid]
–	156 to 157 °C	–	–	Cc1cc(N(C)Cc2oc(-c3ccc(C(F)(F)F)cc3)nc2C)ccc1OCC(=O)O [Example 14, (2-Methyl-4-{methyl-[4-methyl-2-(4-trifluoromethyl-phenyl)-oxazol-5-ylmethyl]-amino}-phenoxy)-acetic acid]
–	161 to 162 °C	–	–	CCN(Cc1sc(-c2ccc(C(F)(F)F)cc2)nc1C)c1cc(C)c(OCC(=O)O)c(C)c1 [Example 15.5, (4-{Ethyl-[4-methyl-2-(4-trifluoromethyl-phenyl)-thiazol-5-ylmethyl]-amino}-2,6-dimethyl-phenoxy)-acetic acid]
–	122 to 123 °C	–	–	Cc1cc(N(C)Cc2oc(-c3ccc(C(F)(F)F)cc3)nc2C)cc(C)c1OCC(=O)O [Example 16.4, (2,6-Dimethyl-4-{methyl-[4-methyl-2-(4-trifluoromethyl-phenyl)-oxazol-5-ylmethyl]-amino}-phenoxy)-acetic acid]
–	201 to 203 °C (dec.)	–	–	Cc1cc(NCc2sc(-c3ccc(C(F)(F)F)cc3)nc2C)ccc1OCC(=O)O [Example 18.3, (2-Methyl-4-{[4-methyl-2-(4-trifluoromethyl-phenyl)-thiazol-5-ylmethyl]-amino}-phenoxy)-acetic acid]
–	147 to 154 °C (dec.)	–	–	CCN(Cc1sc(-c2ccc(C(F)(F)F)cc2)nc1C)c1ccc(OCC(=O)O)c(C)c1 [Example 19.2, (4-{Ethyl-[4-methyl-2-(4-trifluoromethyl-phenyl)-thiazol-5-ylmethyl]-amino}-2-methyl-phenoxy)-acetic acid]
–	172.5 to 173 °C	–	–	Cc1nc(-c2ccc(C(F)(F)F)cc2)sc1CN(C)c1ccc(OCC(=O)O)c(I)c1 [Example 20.8, (2-Iodo-4-{methyl-[4-methyl-2-(4-trifluoromethyl-phenyl)-thiazol-5-ylmethyl]-amino}-phenoxy)-acetic acid]
